Experimental data published in patent US10100058B2, “Fused heterocyclic compounds as CaM kinase inhibitors” (Gilead Sciences, Inc., priority 2016, dated 2018).

These compounds were tested against recombinant CaMKIIδ (Homo sapiens (Human), UniProt Q13557) (assay: CaMKIIδ biochemical assay (HTRF)). Conditions: 10 pM CaMKIIδ, 110 nM calmodulin, 12 μM ATP, 1 hour; read-out: CAMKIID-HTRF-384V2 (IC50 - nM).
Protocol: CaMKIIδ Biochemical Assay
The biochemical activity of recombinant CaMKIIδ was measured by monitoring the phosphorylation of a target peptide using Homogenous Time Resolved Fluorescence (HTRF) technology from CisBio Bioassays.

First: N[C@H]1CCN(C(=O)c2ccnc(-c3cnn4ccc(-c5cccs5)nc34)c2)C1 [Example 85, (S)-(3-aminopyrrolidin-1-yl)(2-(5-(thiophen-2-yl)pyrazolo[1,5-a]pyrimidin-3-yl)pyridin-4-yl)methanone]
Second: COc1cc(C(=O)N2CC[C@H](N)C2)cc(-c2cnn3ccc(-c4cccs4)nc23)n1 [Example 110, (S)-(3-aminopyrrolidin-1-yl)(2-methoxy-6-(5-(thiophen-2-yl)pyrazolo[1,5-a]pyrimidin-3-yl)pyridin-4-yl)methanone]
The IC50 of the first is 1.6-fold lower: 4.8 nM for the first, 7.6 nM for the second. The first is the more potent here.

First: N[C@@H]1CCC[C@@H]2CCCN(C(=O)c3ccnc(-c4cnn5ccc(-c6cccs6)nc45)c3)[C@@H]21 [Example 86, ((4aR,8R,8aS)-8-aminooctahydroquinolin-1(2H)-yl)(2-(5-(thiophen-2-yl)pyrazolo[1,5-a]pyrimidin-3-yl)pyridin-4-yl)methanone]
Second: N[C@@H]1CCC[C@H]2CCCN(C(=O)c3ccnc(-c4cnn5ccc(-c6ccccc6)nc45)c3)[C@H]21 [Example 98, ((4aS,8R,8aR)-8-aminooctahydroquinolin-1(2H)-yl)(2-(5-phenylpyrazolo[1,5-a]pyrimidin-3-yl)pyridin-4-yl)methanone]
The IC50 of the first is 7.4-fold lower: 0.99 nM for the first, 7.36 nM for the second.

Compared with `N[C@H]1CCN(C(=O)c2ccnc(-c3cnn4ccc(-c5ccccc5)nc34)c2)C1` [Example 87, (S)-(3-aminopyrrolidin-1-yl)(2-(5-phenylpyrazolo[1,5-a]pyrimidin-3-yl)pyridin-4-yl)methanone], `O=C(c1ccnc(-c2cnn3ccc(-c4ccccc4)nc23)c1)N1C[C@H]2CC[C@@H](C1)N2` [Example 100, ((1R,5S)-3,8-diazabicyclo[3.2.1]octan-3-yl)(2-(5-phenylpyrazolo[1,5-a]pyrimidin-3-yl)pyridin-4-yl)methanone] is 1.5-fold lower in IC50: 45.2 nM for the first, 29.8 nM for the second.

First: N[C@H]1C[C@@H]2CCC[C@H]1N2C(=O)c1ccnc(-c2cnn3ccc(-c4ccccc4)nc23)c1 [Example 88, ((1S,5R,6S)-6-amino-8-azabicyclo[3.2.1]octan-8-yl)(2-(5-phenylpyrazolo[1,5-a]pyrimidin-3-yl)pyridin-4-yl)methanone]
Second: N[C@H]1CC[C@H]2CCCN(C(=O)c3ccnc(-c4cnn5ccc(-c6ccccc6)nc45)c3)[C@H]21 [Example 94, ((4aR,7S,7aR)-7-aminooctahydro-1H-cyclopenta[b]pyridin-1-yl)(2-(5-phenylpyrazolo[1,5-a]pyrimidin-3-yl)pyridin-4-yl)methanone]
The IC50 of the first is 7.2-fold higher: 50.3 nM for the first, 7 nM for the second. The second is the more potent here.

First: O=C(c1ccnc(-c2cnn3ccc(-c4ccccc4)nc23)c1)N1CCCCC12CCNC2 (stereo not drawn) [Example 89, (2-(5-phenylpyrazolo[1,5-a]pyrimidin-3-yl)pyridin-4-yl)(2,6-diazaspiro[4.5]decan-6-yl)methanone]
Second: O=C(c1ccnc(-c2cnn3ccc(-c4ccccc4)nc23)c1)N1CCCC12CCCNC2 (stereo not drawn) [Example 97, (2-(5-phenylpyrazolo[1,5-a]pyrimidin-3-yl)pyridin-4-yl)(1,7-diazaspiro[4.5]decan-1-yl)methanone]
The IC50 of the first is 16-fold lower: 13.6 nM for the first, 216 nM for the second.

First: C[C@H](N)[C@@H]1CCCCN1C(=O)c1ccnc(-c2cnn3ccc(-c4ccccc4)nc23)c1 [Example 90, ((S)-2-((S)-1-aminoethyl)piperidin-1-yl)(2-(5-phenylpyrazolo[1,5-a]pyrimidin-3-yl)pyridin-4-yl)methanone]
Second: O=C(c1ccnc(-c2cnn3ccc(-c4ccccc4)nc23)c1)N1CCCC[C@@H]1[C@@H]1CCCN1 [Example 93, (2-(5-phenylpyrazolo[1,5-a]pyrimidin-3-yl)pyridin-4-yl)((R)-2-((S)-pyrrolidin-2-yl)piperidin-1-yl)methanone]
The IC50 of the first is 2.1-fold higher: 58.5 nM for the first, 27.8 nM for the second. The second is the more potent here.

Compared with `O=C(c1ccnc(-c2cnn3ccc(-c4ccccc4)nc23)c1)N1C2CCCC1CNCC2` (stereo not drawn) [Example 91], `O=C(c1ccnc(-c2cnn3ccc(-c4ccccc4)nc23)c1)N1CCC2CCNCC21` (stereo not drawn) [Example 95, (octahydro-1H-pyrrolo[2,3-c]pyridin-1-yl)(2-(5-phenylpyrazolo[1,5-a]pyrimidin-3-yl)pyridin-4-yl)methanone] is 12-fold higher in IC50: 32.8 nM for the first, 390 nM for the second.

Going from `O=C(c1ccnc(-c2cnn3ccc(-c4ccccc4)nc23)c1)N1CCC2CNCC21` (stereo not drawn) [Example 92, (hexahydropyrrolo[3,4-b]pyrrol-1(2H)-yl)(2-(5-phenylpyrazolo[1,5-a]pyrimidin-3-yl)pyridin-4-yl)methanone] to `N[C@@H]1CC[C@H]2CCCN(C(=O)c3ccnc(-c4cnn5ccc(-c6ccccc6)nc45)c3)[C@H]21` [Example 96, ((4aR,7R,7aR)-7-aminooctahydro-1H-cyclopenta[b]pyridin-1-yl)(2-(5-phenylpyrazolo[1,5-a]pyrimidin-3-yl)pyridin-4-yl)methanone], the IC50 falls from 32.1 nM to 12.7 nM (2.5-fold). The second is the more potent here.

`N[C@H]1CC[C@@H]2CCCN(C(=O)c3ccnc(-c4cnn5ccc(-c6ccccc6)nc45)c3)[C@@H]21` [Example 99, ((4aS,7S,7aS)-7-aminooctahydro-1H-cyclopenta[b]pyridin-1-yl)(2-(5-phenylpyrazolo[1,5-a]pyrimidin-3-yl)pyridin-4-yl)methanone] and `NC[C@H]1CCCCN1C(=O)c1cc(-c2cnn3ccc(-c4ccccc4)nc23)nc(C2CC2)c1` [Example 117, (R)-(2-(aminomethyl)piperidin-1-yl)(2-cyclopropyl-6-(5-phenylpyrazolo[1,5-a]pyrimidin-3-yl)pyridin-4-yl)methanone] are within 1.5-fold of each other in IC50: 6.98 nM for the first, 8.08 nM for the second.

Compared with `O=C(c1ccnc(-c2cnn3ccc(-c4cccs4)nc23)c1)N1CCC[C@@H]2CCNC[C@@H]21` [Example 101, ((4aR,8aR)-octahydro-1,7-naphthyridin-1(2H)-yl)(2-(5-(thiophen-2-yl)pyrazolo[1,5-a]pyrimidin-3-yl)pyridin-4-yl)methanone], `NC[C@H]1CCCCN1C(=O)c1cc(Cl)nc(-c2cnn3ccc(-c4cccs4)nc23)c1` [Example 111, (R)-(2-(aminomethyl)piperidin-1-yl)(2-chloro-6-(5-(thiophen-2-yl)pyrazolo[1,5-a]pyrimidin-3-yl)pyridin-4-yl)methanone] is 190-fold lower in IC50: 9.54 nM for the first, 0.05 nM for the second.

First: CCN(CC)[C@@H](C)CNC(=O)c1cc(N)nc(-c2cnn3ccc(-c4cccs4)nc23)c1 [Example 102, (S)-2-amino-N-(2-(diethylamino)propyl)-6-(5-(thiophen-2-yl)pyrazolo[1,5-a]pyrimidin-3-yl)isonicotinamide]
Second: CCN(CC)[C@@H](C)CNC(=O)c1cc(Cl)nc(-c2cnn3ccc(-c4cccs4)nc23)c1 [Example 103, (S)-2-chloro-N-(2-(diethylamino)propyl)-6-(5-(thiophen-2-yl)pyrazolo[1,5-a]pyrimidin-3-yl)isonicotinamide]
The IC50 of the first is 13-fold lower: 0.04 nM for the first, 0.52 nM for the second.

Going from `CCN(CC)[C@@H](C)CNC(=O)c1cc(-c2cnn3ccc(-c4cccs4)nc23)nc(C(C)C)c1` [Example 104, (S)—N-(2-(diethylamino)propyl)-2-isopropyl-6-(5-(thiophen-2-yl)pyrazolo[1,5-a]pyrimidin-3-yl)isonicotinamide] to `CCN(CC)[C@@H](C)CNC(=O)c1cc(OC)nc(-c2cnn3ccc(-c4cccs4)nc23)c1` [Example 112, (S)—N-(2-(diethylamino)propyl)-2-methoxy-6-(5-(thiophen-2-yl)pyrazolo[1,5-a]pyrimidin-3-yl)isonicotinamide], the IC50 falls from 3.96 nM to 0.14 nM (28-fold). The second is the more potent here.

Going from `CN(C)c1cc(C(=O)N2CCCC[C@@H]2CN)cc(-c2cnn3ccc(-c4cccs4)nc23)n1` [Example 106, (R)-(2-(aminomethyl)piperidin-1-yl)(2-(dimethylamino)-6-(5-(thiophen-2-yl)pyrazolo[1,5-a]pyrimidin-3-yl)pyridin-4-yl)methanone] to `NC[C@@H]1CCCCN1C(=O)c1cc(Cl)nc(-c2cnn3ccc(-c4cccs4)nc23)c1` [Example 113, (S)-(2-(aminomethyl)piperidin-1-yl)(2-chloro-6-(5-(thiophen-2-yl)pyrazolo[1,5-a]pyrimidin-3-yl)pyridin-4-yl)methanone], the IC50 rises from 1.59 nM to 41.9 nM (26-fold). The first is the more potent here.

Going from `CCN(CC)[C@@H](C)CNC(=O)c1cc(-c2cnn3ccc(-c4cccs4)nc23)nc(C(F)(F)F)c1` [Example 107, (S)—N-(2-(diethylamino)propyl)-2-(5-(thiophen-2-yl)pyrazolo[1,5-a]pyrimidin-3-yl)-6-(trifluoromethyl)isonicotinamide] to `CCN(CC)[C@@H](C)CNC(=O)c1cc(N)nc(-c2cnn3ccc(-c4ccccc4)nc23)c1` [Example 114, (S)-2-amino-N-(2-(diethylamino)propyl)-6-(5-phenylpyrazolo[1,5-a]pyrimidin-3-yl)isonicotinamide], the IC50 falls from 5.62 nM to 0.5 nM (11-fold). The second is the more potent here.

Going from `CN(C)c1cc(C(=O)N2CC[C@H](N)C2)cc(-c2cnn3ccc(-c4cccs4)nc23)n1` [Example 109, (S)-(3-aminopyrrolidin-1-yl)(2-(dimethylamino)-6-(5-(thiophen-2-yl)pyrazolo[1,5-a]pyrimidin-3-yl)pyridin-4-yl)methanone] to `CN(C)c1cc(C(=O)N2CCCC[C@@H]2CN)cc(-c2cnn3ccc(-c4ccccc4)nc23)n1` [Example 118, (R)-(2-(aminomethyl)piperidin-1-yl)(2-(dimethylamino)-6-(5-phenylpyrazolo[1,5-a]pyrimidin-3-yl)pyridin-4-yl)methanone], the IC50 falls from 20.8 nM to 5.29 nM (3.9-fold). The second is the more potent here.

Going from `Cc1cc(C(=O)N2CCCC[C@@H]2CN)cc(-c2cnn3ccc(-c4ccccc4)nc23)n1` [Example 115, (R)-(2-(aminomethyl)piperidin-1-yl)(2-methyl-6-(5-phenylpyrazolo[1,5-a]pyrimidin-3-yl)pyridin-4-yl)methanone] to `NC[C@H]1CCCCN1C(=O)c1cc(-c2cnn3ccc(-c4ccccc4)nc23)nc(C(F)(F)F)c1` [Example 116, (R)-(2-(aminomethyl)piperidin-1-yl)(2-(5-phenylpyrazolo[1,5-a]pyrimidin-3-yl)-6-(trifluoromethyl)pyridin-4-yl)methanone], the IC50 rises from 1.41 nM to 5.89 nM (4.2-fold).

`CCN[C@@H](C)CNC(=O)c1cc(CC)nc(-c2cnn3ccc(-c4ccccc4)nc23)c1` [Example 119, (S)-2-ethyl-N-(2-(ethylamino)propyl)-6-(5-phenylpyrazolo[1,5-a]pyrimidin-3-yl)isonicotinamide] showed an IC50 of 71 nM.
